Source: patent publication US9943528B2 (MAPREG, priority 2016, dated 2018)

How the values were obtained:
[1] = test system: Wistar (WI) rats; experiment: Forced swimming test (FST) in WI rats, dose-ranging; type: in vivo, rat; conditions: FIG. 6A
Procedure: (§1) After, a 6-day period of acclimatization, the acute phase of treatment started for 4 days during behavioral tests were performed (FIG. 3). All animals were injected 1 h 30 before the starting of behavioral test.
Rats were submitted to the forced swimming test (FST), according the procedure initially described by (Detke et al., 1995) and slightly modified by (Bianchi et al., 2002). Briefly, rats were individually placed into a Plexiglas cylinder (40 cm height, 20 cm diameter) containing 25 cm of water at 25±1° C., under 50 lux illumination. After a pre-test session of 15 min, rats were removed, dried and returned to its housed cage. Twenty-four hours after the pre-test session, rats were still placed in the swim cylinder (under identical conditions) for the 5-min test session. The pre-test and test sessions were recorded using a video camera placed above the cylinder for subsequent behavioral analysis. The immobility time (in sec) was blindly measured by two independent experimenters from recorded videos. Rats were considered as immobile when none activity was observed other than that required to keep the rat's head above the water.

[2] = test system: Noradrenergic α1; experiment: CNS receptor binding assay, α1; conditions: MAP4343 10 μM; [3H] prazosin; rat cerebral cortex
Text: MAP4343 has been screened for in vitro affinity to 80 different CNS neurotransmitters receptors using various validated binding assays.

[3] = test system: purified tubulin and MAP2; experiment: Activity: increase in optical density at 345 nm of purified tubulin and MAP2 with GTP; type: biochemical; conditions: 37° C.
Procedure: Activity is measured by the increase in optical density at 345 nm of a mixture of purified tubulin and MAP2, incubated at 37° C. in the presence of GTP.

[4] = test system: Wistar Kyoto (WKY) rats; experiment: Open-field arena (OFA) in WKY rats, acute treatment; type: in vivo, rat; conditions: MAP4343 10 mg/kg s.c., fluoxetine 10 mg/kg i.p., ketamine 30 mg/kg i.p.
Procedure: (§2) After a 6-day period of acclimatization, all experimental groups received daily successive subcutaneous (250 μl per rat) and intraperitoneal (1 ml/kg) injections. WI rats received injection of vehicle (sesame oil+saline) while WKY rats were randomly assigned to […] experimental groups, as follow: KWY rats receiving only vehicle (sesame oil+saline) and WKY rats treated with MAP4343 (10 mg/kg, s.c.; rats received in parallel i.p. injections of saline), fluoxetine (10 mg/kg i.p., rats received in parallel s.c. injections of sesame oil) or ketamine (30 mg/kg, i.p.; rats received in parallel s.c. injections of sesame oil) (see FIG. 3).
as §1
The animals were individually placed in the open field arena (OFA) (70×100×70 cm), with a central square (35×50 cm), located in a 50 lux illuminated room and videotaped during 3 min using a computerized system (VideoTrack V2.5, ViewPoint, Lyon, France).
OFA allows firstly the evaluation of total locomotor activity (LMA) thereby measuring the total distance travelled in the arena (in cm). Secondly, measurements of the activity in the center of the arena like (i) the number of entries in the center of arena and (ii) the total time spent in the center of arena (in sec) provide cues of anxiety-like behavior (Prut and Belzung, 2003). All these behavioral parameters were instantaneously measured automatically with the VideoTrack V2.5 software from the videos.

[5] = test system: Wistar Kyoto (WKY) rats; experiment: Forced swimming test (FST) in WKY rats; type: in vivo, rat; conditions: FIG. 6B
Procedure: as §2, with “([…];” for “(sesame oil+saline) and WKY rats treated with MAP4343 (10 mg/kg, s.c.;”
as §1
Rats were submitted to the forced swimming test (FST), according the procedure initially described by (Detke et al., 1995) and slightly modified by (Bianchi et al., 2002). Briefly, rats were individually placed into a Plexiglas cylinder (40 cm height, 20 cm diameter) containing 25 cm of water at 25±1° C., under 50 lux illumination. […] The pre-test and test sessions were recorded using a video camera placed above the cylinder for subsequent behavioral analysis. The immobility time (in sec) was blindly measured by two independent experimenters from recorded videos. […]

[6] = test system: Wistar Kyoto (WKY) rats; experiment: Novel object recognition (NOR) test in WKY rats, chronic administration; type: in vivo, rat; conditions: MAP4343 15 mg/kg, s.c., 24 days
Procedure: Wistar Kyoto (WKY) rats are considered as a model of treatment-resistant depression, while Wistar (WI) rats are used as control strain of WKY rats. During this experiment both WI and WKY rats were administered with MAP4343 (15 mg/Kg), subcutaneously (s.c.) for 24 days. Behavioral tests were performed at during the last week of treatment, and rats were finally sacrificed for addressing neurogenesis in Gyrus dentate of hippocampus using histological experiments. Organization of this protocol is depicted in FIG. 7.
MAP4343 was diluted in sesame oil, and then administered subcutaneously (s.c.) at the dose of 15 mg/kg during 24 days. The vehicle group received only the sesame oil (1 ml/kg) in the similar conditions.
The NOR task is a test of recognition memory based on the spontaneous preference of rats for novelty. The applied procedure was based on that previously described by Ennaceur and Delacour (1988). NOR task was performed at D21 of the treatment period (see FIG. 7). In a first session (habituation, 5 min), each rat was familiarized with two identical objects placed in the border of the open-field area (70×100×70 cm). In a second session performed 1 h after (novel object recognition, 5 min), one of the two familiar objects was replaced by a novel object. […] Results are given as exploratory time for the novel object and the total exploratory time.

[7] = test system: tree shrews exposed to chronic psychosocial stress; conditions: 4-week daily administration; cited from earlier work

## CO[C@H]1CC[C@@]2(C)C(=CC[C@H]3[C@@H]4CC[C@H](C(C)=O)[C@@]4(C)CC[C@@H]32)C1 [MAP4343, 3β-methoxy-pregna-5-ene-20-one]
[1]; MAP4343 10 mg/kg
  immobility time in FST, change vs WI receiving vehicle alone: −27%
[1]; MAP4343 15 mg/kg
  immobility time in FST, change vs WI receiving vehicle alone: −31%
[1]; MAP4343 1, 5, 10 and 15 mg/kg
  immobility time in FST, dose-ranging effect: dose-dependent reduction of immobility time
[2]
  % Inhibition of control specific binding: 4%
[3]
  Activity: 100% of PREG
[4]; 3 min, FIG. 5A
  locomotor activity (total distance travelled in the open-field arena), change vs WKY receiving vehicle: did not modify significantly the locomotor activity
[4]; FIG. 5B
  number of entries in the central square of OFA, change vs WKY receiving only vehicle: +289%
[4]; FIG. 5C
  time spent in the center of open-field vs WKY receiving vehicle: did not modify the low time spent in central square of arena
[5]; MAP4343 1, 5, 10 and 15 mg/kg
  immobility time in FST, dose-ranging effect: dose-dependent decrease of immobility time
[5]; dose-ranging, MAP4343 15 mg/kg
  immobility time in FST, change vs WKY receiving vehicle alone: −25%
[6]; FIG. 8B
  time spent with the novel object in NOR, change vs WKY receiving only vehicle: +58%
[6]; FIG. 8C
  total exploratory time in NOR, change vs WKY receiving only vehicle: +41%
[7]
  hormone hypersecretion, hypothermia and sleep disturbances: prevent hormone hypersecretion, hypothermia and sleep disturbances
  stress-triggered avoidance behavior: abolish stress-triggered avoidance behavior
